A short description of series [1]: Drug localization in mitochondria of human HCC827 cells assessed as increase in green fluorescence by measuring pearson correlation coefficient at 5 uM incubated for 10 mins by mito-tracker green dye based confocal scanning microscopy analysis. The class given is ADME. Particulars: hcc827, 10 min.
A short description of series [2]: Drug localization in mitochondria of human HCC827 cells assessed as increase in green fluorescence by measuring pearson correlation coefficient at 10 uM incubated for 10 mins by mito-tracker green dye based confocal scanning microscopy analysis. Particulars: hcc827, 10 min. Type of series: ADME.
Series [3] is described as follows: Drug uptake in human HCC827 cells mitochondria assessed as increase in fluorescence intensity at 10 uM by fluorescence emission spectroscopy analysis. As to conditions: hcc827, 10 µM. Type of series: ADME.
A short description of series [4]: Drug metabolism in human HCC827 cells mitochondria assessed as 2-(2-(4-hydroxystyryl)-4H-chromen-4-ylidene)malononitrile hydrolysis at 10 uM incubated for 5 mins by fluorescence emission spectroscopy analysis. The class given is ADME. Particulars: hcc827, 5 min.
The test system of series [5] is A-375. The experiment in a line: Anticancer activity against human A-375 cells assessed as inhibition of cell growth by MTT assay. The class given is functional, cell-based.
Series [6] in a line: Antiproliferative activity against human LO2 cells assessed as inhibition of cell growth measured after 72 hrs by MTT assay. Type of series: toxicity, cell-based, L02. (Tetrazolium assays rely on reduction of a dye to a coloured formazan, in cell work by metabolically active cells.)
A short description of series [7]: Antiproliferative activity against human HUVEC cells assessed as inhibition of cell growth measured after 72 hrs by MTT assay. Type of series: toxicity, cell-based.
Series [8] can be described thus: Antiproliferative activity against HEK293T cells assessed as inhibition of cell growth measured after 72 hrs by MTT assay. The class given is toxicity, cell-based, HEK-293T. Particulars: human.
Series [9] is described as follows: Antiproliferative activity against human BEAS-2B cells assessed as inhibition of cell growth measured after 72 hrs by MTT assay. Type of series: toxicity, cell-based.
In another series the test system is NCI-H1975. The experiment in a line: Antiproliferative activity against human NCI-H1975 cells assessed as inhibition of cell growth measured after 72 hrs by MTT assay. The class given is functional, cell-based. Particulars: NCI-H1975, 72 h.
The subject of series [10] is HCC827. Description: Antiproliferative activity against human HCC827 cells assessed as inhibition of cell growth measured after 72 hrs by MTT assay. The class given is functional, cell-based. Particulars: HCC827, 72 h.
Series [11] can be described thus: Antiproliferative activity against human Osimertinib-resistant HCC827 cell assessed as inhibition of cell growth measured after 72 hrs by MTT assay. The class given is functional, cell-based.
In the next series the test system is A549. The experiment in a line: Antiproliferative activity against human A549 cells assessed as inhibition of cell growth measured after 72 hrs by MTT assay. Type of series: functional, cell-based. As to conditions: A549, 72 h.
For series [12], the system named is A-375. Description: Antiproliferative activity against human A-375 cells assessed as inhibition of cell growth measured after 72 hrs by MTT assay. The class given is functional, cell-based. Particulars: A-375, 72 h.
The test system of another series is NCI-H1650. The experiment in a line: Antiproliferative activity against human NCI-H1650 cells assessed as inhibition of cell growth measured after 72 hrs by MTT assay. The class given is functional, cell-based. As to conditions: NCI-H1650, 72 h.
The subject of another series is MCF7. The experiment in a line: Antiproliferative activity against human MCF7 cells assessed as inhibition of cell growth measured after 72 hrs by MTT assay. Type of series: functional, cell-based. As to conditions: MCF7, 72 h.
The subject of the next series is HCT-116. Description: Antiproliferative activity against human HCT-116 cells assessed as inhibition of cell growth measured after 72 hrs by MTT assay. The class given is functional, cell-based. As to conditions: HCT-116, 72 h.
Another series deals with MDA-MB-231. The experiment in a line: Antiproliferative activity against human MDA-MB-231 cells assessed as inhibition of cell growth measured after 72 hrs by MTT assay. The class given is functional, cell-based. As to conditions: MDA-MB-231, 72 h.
In the next series the test system is SK-LU-1. The experiment in a line: Antiproliferative activity against human SK-LU-1 cells assessed as inhibition of cell growth measured after 72 hrs by MTT assay. Type of series: functional, cell-based. As to conditions: SK-LU-1, 72 h.
The subject of a further series is NCI-H460. Description: Antiproliferative activity against human NCI-H460 cells assessed as inhibition of cell growth measured after 72 hrs by MTT assay. Type of series: functional, cell-based. Particulars: NCI-H460, 72 h.
In the next series the test system is NCI-H1299. The experiment in a line: Antiproliferative activity against human NCI-H1299 cells assessed as inhibition of cell growth measured after 72 hrs by MTT assay. Type of series: functional, cell-based. Particulars: NCI-H1299, 72 h.
For series [13], the system named is Osimertinib-resistant NCI-H1975 cell. Description: Antiproliferative activity against human Osimertinib-resistant NCI-H1975 cell assessed as inhibition of cell growth measured after 72 hrs by MTT assay. The class given is functional, cell-based.
The nature of series [14]: Drug accumulation in mitochondria of human HCC827 cells at 10 uM incubated for 5 mins. Particulars: hcc827, 5 min. Type of series: ADME.
Series [15] is described as follows: Drug accumulation in mitochondria of human HCC827 cells at 10 uM incubated for 10 mins in presence of CCCP by RP-HPLC-UV analysis. Type of series: ADME. Particulars: hcc827, 10 min.
For a further series, the system named is Mitochondrial membrane. Description: Induction of mitochondrial membrane depolarization in human HCC827 cells assessed as increase in J-monomer ratio at 0.5 uM incubated for 4 hrs by JC-1 staining based flow cytometric analysis. Type of series: cell membranes. (In general: In flow cytometry, cells or beads pass a laser one at a time.)
Series [16] deals with HCC827. The experiment in a line: Induction of mitochondrial dysfunction in human HCC827 cells assessed as cytochrome C release in cytoplasm at 1 uM measured after 72 hrs by laser scanning confocal fluorescence microscopic analysis. Type of series: functional, cell-based.
Series [17] concerns HCC827. Description: Induction of cell cycle arrest in human HCC827 cells assessed as accumulation of cells at G1 phase at 0.4 uM incubated for 24 hrs by PI staining based flow cytometry analysis (reference value: 66.44%). The class given is functional.
Series [18] has as its system HCC827. Description: Induction of cell cycle arrest in human HCC827 cells assessed as accumulation of cells at G2 phase at 0.4 uM incubated for 24 hrs by PI staining based flow cytometry analysis (reference value: 7.15%). Type of series: functional.
Series [19] concerns HCC827. The experiment in a line: Induction of cell cycle arrest in human HCC827 cells assessed as accumulation of cells at S phase at 0.4 uM incubated for 24 hrs by PI staining based flow cytometry analysis (reference value: 26.41%). The class given is functional.
The test system of series [20] is HCC827. The experiment in a line: Induction of ROS generation in human HCC827 cells assessed as decrease in NADH content at 1 uM incubated for 4 hrs by absorbance based analysis. The class given is functional, cell-based.
Series [21] concerns HCC827. The experiment in a line: Induction of ROS generation in human HCC827 cells assessed as increase in NAD+/NADH ratio at 1 uM incubated for 4 hrs by absorbance based analysis. The class given is functional, cell-based.
Series [22] deals with HCC827. Description: Induction of apoptosis in human HCC827 cells assessed as viable cells at 1.0 uM measured after 48 hrs by annexin V and PI staining based flow cytometry analysis (reference value: 96.74%). Type of series: functional. As to conditions: read-out: Activity.
In series [23] the test system is HCC827. The experiment in a line: Induction of apoptosis in human HCC827 cells assessed as early apoptotic cells at 1 uM measured after 48 hrs by annexin V and PI staining based flow cytometry analysis (reference value: 0.70%). Type of series: functional.
Series [24] relates to HCC827. Description: Induction of apoptosis in human HCC827 cells assessed as late apoptotic cells at 1 uM measured after 48 hrs by annexin V and PI staining based flow cytometry analysis (reference value: 1.29%). The class given is functional.
Series [25] has as its system HCC827. The experiment in a line: Induction of apoptosis in human HCC827 cells assessed as necrotic cells at 1 uM measured after 48 hrs by annexin V and PI staining based flow cytometry analysis (reference value: 1.18%). The class given is functional.
Series [26] deals with HCC827. Description: Inhibition of colony formation in human HCC827 cells at 0.2 uM incubated for 72 hrs by crystal violet staining based analysis. Type of series: functional, cell-based.
The subject of series [27] is HeLa. Description: Induction of mitophagy in human HeLa cells harbouring mCherry-GFP tag assessed as reduction in GFP fluorescence at 40 uM incubated for 24 hrs by confocal microscopy analysis. Type of series: functional, cell-based.
Series [28] concerns HeLa. The experiment in a line: Induction of mitophagy in human HeLa cells harbouring mCherry-GFP tag assessed as visible mCherry fluorescence at 40 uM incubated for 24 hrs by confocal microscopy analysis. The class given is functional, cell-based.
In series [29] the test system is HeLa. The experiment in a line: Induction of mitophagy in human HeLa cells assessed as colocalization of mitochondria and lysosomes at 40 uM by mitoGFP staining based confocal microscopy analysis. Type of series: functional, cell-based.
In series [30] the test system is HeLa. Description: Induction of mitophagy in human HeLa cells assessed as colocalization of mitochondria and lysosomes at 40 uM by lysotracker red staining based confocal microscopy analysis. Type of series: functional, cell-based.

pIC50: −log10 of the molar value. The source made the active and inactive calls. The rule behind the calls is not given here.

For `N#CC(C#N)=C1C=C(/C=C/c2ccc(O)cc2)Oc2ccccc21`, the Drug uptake in series [1] stood at 0.21.
On to `Cc1ccc([P+](CCCCCCCCCCOC(=O)Oc2ccc(/C=C/C3=CC(=C(C#N)C#N)c4ccccc4O3)cc2)(c2ccc(C)cc2)c2ccc(C)cc2)cc1.[Br-]`, for which the Drug uptake in series [2] is on record as 0.84; in series [3], “Active”. Further, in series [4], the Drug metabolism entry was “metabolite_detected”.
The pIC50 is the negative decadic logarithm of the IC50, by convention in mol/L. For the compound `O=C(CCCCC(CCSCc1ccccc1)SCc1ccccc1)OCCCCCCCCCC[P+](c1ccccc1)(c1ccccc1)c1ccccc1` (centres undefined), in the series on A-375 [5], the pIC50 was 7.00.
As for `N#CC(C#N)=C1C=C(/C=C/c2ccc(OC(=O)OCCCCCCCCCC[P+](c3ccccc3)(c3ccccc3)c3ccccc3)cc2)Oc2ccccc21.[Br-]`, the Drug uptake is 0.9 in series [2] and “Active” in [3]. In addition, the Drug metabolism entry in series [4] is listed as “metabolite_detected”.
Broadly, the IC50 is the concentration that gives 50% inhibition. On to `OCCCCCCCCCC[P+](c1ccc(C(F)(F)F)cc1)(c1ccc(C(F)(F)F)cc1)c1ccc(C(F)(F)F)cc1.[Br-]`, for which the 50% inhibitory concentration (IC50) at 72 h was above 40 µM in [6], above 40 µM in series [7], 13.8 µM in series [8] and 6.9 µM in series [9]. Further, the negative logarithm of the IC50 (pIC50) in the series on NCI-H1975 is below 5.30; in the series with HCC827 [10], below 5.30; in series [11], below 5.30; in the series on A549, 5.21; in the series with A-375 [12], 5.27; with NCI-H1650, 5.71. Moreover, the negative-log IC50 (pIC50) in the series with MCF7 was 5.19; in the series on HCT-116, 5.11; with MDA-MB-231, 5.20; in the series with SK-LU-1, below 5.30; in the series with NCI-H460 it was 5.51; in the series on NCI-H1299, below 5.00. Moreover, in [13], the pIC50 was 5.27. In addition, the Drug uptake is recorded as 52% in series [14] and “Not_active” in series [15]. Moreover, the result in the series with Mitochondrial membrane and in the series with HCC827 [16] was inactive. Further, the Activity is on record as 69.33% in the series with HCC827 [17]; 4.38% in the series with HCC827 [18]; 26.29% in the series with HCC827 [19]; 1.3% in the series with HCC827 [23]; 2.72% with HCC827 [24]; 2.87% in the series on HCC827 [25]. For the same compound, the outcome in the series on HCC827 [20] and in the series on HCC827 [21] was Active. Moreover, the viability at 1 µM in the series on HCC827 [22] was found to be 92.1%. Also, the inhibition entry in the series on HCC827 [26] is “Weak_effect”.
Take `O=C(CCCCC(CCSCc1ccccc1)SCc1ccccc1)OCCCCC[P+](c1ccccc1)(c1ccccc1)c1ccccc1` (centres undefined): in the series with A-375 [5], the pIC50 was 5.38.
In the case of `N#CC(C#N)=NNc1cccc(Cl)c1`, the outcome with HeLa [27], with HeLa [28], in the series with HeLa [29] and with HeLa [30] was Active.
